From US20070042971A1, “Crystalline compound of 4'-demethyl-4'-phosphate-2", 3"-bispentafluorophenoxy-acetyl-4", 6"-ethylidene-beta-d-epipodophyllotoxin glucoside either in its free form or solvated with ethanol” (Pierre Fabre Medicament, priority 2003, published 2007)
Values after ≈ are worked out from the molar mass of the structure shown. “Also recorded” adds a separate entry of the source. Like-named read-outs stand apart in the source and are kept apart here.

What was measured:
P388 leukemia [1] = settings: mice implanted with the P388 leukemia model; cited from earlier work
[2] = cited from earlier work
[3] = powdered form; for % of degradation products after 1 month at 30° C. with 75% relative humidity: open bottle
P388 leukemia [4] = test system: P388 leukemia
[5] = Solubility in water and ethanol; assay type: physicochemical
[6] = listed as hemiethanolate compound of formula 3 in crystalline form

For “4′-demethylepipodophyllotoxin 2″,3″-bispentafluoro-phenoxyacetyl-4″,6″-ethylidene-β-D-glucoside 4′-phosphate [Compound of formula 1]”, the stability on conservation (conserved at 4° C. and, a fortiori, at ambient temperature) is given as “degrades over time”, the stability (usual conditions of neutral and acid pH and of temperature) is given as “stable” and the survival (P388 leukemia [1]) is given as “long survival”.

For `COc1cc([C@@H]2c3cc4c(cc3[C@@H](O[C@@H]3O[C@@H]5CO[C@@H](C)O[C@H]5[C@H](O)[C@H]3O)[C@H]3COC(=O)[C@H]23)OCO4)cc(OC)c1OP(=O)(O)O` [Etopophos], the solubility in water [2] is given as 100 mg/mL (≈ 150 mM).

With “hemiethanolate of 4′-demethylepipodophyllotoxin 2″,3″-bispentafluoro-phenoxyacetyl-4″,6″-ethylidene-β-D-glucoside 4′-phosphate” the “% of degradation products after 1 month at 30° C. with 75% relative humidity” value [3] was 1.8%, the “% of degradation products after 1 month at 30° C. with 75% relative humidity” value [3, 6] was 1.8% and the “% of degradation products after 1 month at 40° C. in a closed bottle” value [3] was 1.5%. The “% of degradation products after 1 month at 40° C. in a closed bottle” value [3, 6] was 1.5%, the “in vivo antitumor activity (in words)” value (P388 leukemia [4]; P388 leukemia model, overall, listed as compound of formula 3 in crystalline form) was “high-level antitumor activity” and the “in vivo antitumor activity (in words)” value (P388 leukemia [4]; P388 leukemia model, overall, listed as hemiethanolate of formula 3) was “exhibits the required pharmacological activity”. The “prolongation of the survival of the animals” value (“prolongation” below) (P388 leukemia [4]; dose 40 mg/kg) was 43%, the “T/C values (%)” value (P388 leukemia [4]; dose 40 mg/kg, single intraperitoneal injection on day 1, median survival treated/control x 100) was 143% and the “T/C values (%)” value (P388 leukemia [4]; dose 80 mg/kg, single intraperitoneal injection on day 1, median survival treated/control x 100) was 143%. For the same compound, the “prolongation” value (P388 leukemia [4]; dose 160 mg/kg) was 229% and the “T/C values (%)” value (P388 leukemia [4]; dose 160 mg/kg, single intraperitoneal injection on day 1, median survival treated/control x 100) was 329%.

For `COc1cc(C2c3cc4c(cc3[C@@H](OC3OC5COC(C)OC5C(OC(=O)COc5c(F)c(F)c(F)c(F)c5F)C3OC(=O)COc3c(F)c(F)c(F)c(F)c3F)[C@H]3COC(=O)C23)OCO4)cc(OC)c1OP(=O)(O)O` (stereo partly drawn) [Compound of formula 2 in amorphous form, 4′-demethylepipodophyllotoxin 2″,3″-bispentafluoro-phenoxyacetyl-4″,6″-ethylidene-β-D-glucoside 4′-phosphate], the “solubility in ethanol (in words)” value ([5]; ethanol) was “soluble”, the “solubility in water (in words)” value ([5]; water) was “is not” and the “antitumor activity (in words)” value (P388 leukemia [4]; mouse, in vivo) was “does not induce any significant antitumor activity”. For the same compound, the “in vivo antitumor activity (in words)” value (P388 leukemia [4]; mouse, in vivo) was “did not have the in vivo activity”, the “T/C values (%)” value (P388 leukemia [4]; mouse, in vivo, ip, 40 mg/kg) was 100% and the “T/C values (%)” value (P388 leukemia [4]; mouse, in vivo, ip, 80 mg/kg) was 114%. The “T/C values (%)” value (P388 leukemia [4]; mouse, in vivo, ip, 160 mg/kg) was 157%.

With `COc1cc(C2c3cc4c(cc3[C@@H](OC3OC5COC(C)OC5C(OC(=O)COc5c(F)c(F)c(F)c(F)c5F)C3OC(=O)COc3c(F)c(F)c(F)c(F)c3F)[C@H]3COC(=O)C23)OCO4)cc(OC)c1OP(=O)(O)O` (stereo partly drawn) [Crystalline formula 2, 4′-demethylepipodophyllotoxin 2″,3″-bispentafluorophenoxyacetyl-4″,6″-ethylidene-β-D-glucoside 4′-phosphate] the “in vivo antitumor activity (in words)” value (P388 leukemia [4]; mouse, in vivo) was “exhibits the required pharmacological activity; also recorded: high-level antitumor activity”, the “prolongation” value (P388 leukemia [4]; mouse, in vivo, 40 mg/kg) was 43% and the “prolongation” value (P388 leukemia [4]; mouse, in vivo, 160 mg/kg) was 200%. For the same compound, the “T/C values (%)” value (P388 leukemia [4]; mouse, in vivo, ip, 40 mg/kg) was 143%, the “T/C values (%)” value (P388 leukemia [4]; mouse, in vivo, ip, 80 mg/kg) was 157% and the “T/C values (%)” value (P388 leukemia [4]; mouse, in vivo, ip, 160 mg/kg) was 300%.
